Assay results published in article PMC9919490, “Synthesis and Biological Evaluation of Novel Dispiro-Indolinones with Anticancer Activity” (Molecules, 2023).

How the values were obtained:
Assay type in all cases: cell-based
PC3 cells = assay: MTT cytotoxicity assay, PC3 (p53 neg)
Description: (§1) The synthesized compounds were tested for their ability to block the proliferation of the selected model cell lines: LNCaP (p53+), PC3 (p53-), HCT^wt (p53+), and HCT^−/− (p53-) cells. The assay was carried out using the standard MTT (3-(4,5-dimethylthiazol-2-yl)2,5-diphenyl tetrazolium bromide) assay based on the modified approach reported by Ferrari and colleagues. […] Differences in IC50 values against these cell lines were used to assess the selectivity of the compounds.
(§2) Model cell lines were purchased from the in stock collection of the N.N. Blokhin Russian Cancer Research Center (RAMS). Cells were accurately maintained in the recommended media, supplemented with 10% heat-inactivated FBS (Invitrogen) and 2 mmol/L L-glutamine (Invitrogen).
(§3) First, 4000 cells per well were plated out in 140 µL of DMEM (with 10% FBS) in 96-well plates and incubated in 5% CO2 for 24 h at 37 °C without treatment. […] The cells were treated for 48 h with […] (eight dilutions) concentrations of the substances (each in triplicate) or doxorubicin (0.3 nM–600 nM, eight dilutions) as a control substance. After the incubation, 15 µL of MTT solution in PBS (5 mg/mL) was added, and the cells were incubated for 2 h, followed by removal of the media and addition of 120 µL of DMSO. […] Cell survival rates were determined by the comparison of optical density with the corresponding untreated control cell culture. Dose-dependent curves and the corresponding IC50 values were calculated using “GraphPad Prism 6” software (GraphPad Software, Inc., San Diego, CA, USA).

LNCaP cells = assay: MTT cytotoxicity assay, LNCaP (p53 pos); conditions: 48 h
Description: as §1, §2, §3

HCT^−/− cells = assay: MTT cytotoxicity assay, HCT^−/− (p53 neg); conditions: 48 h
Description: as §1, §2, §3

HCT^wt cells = assay: MTT cytotoxicity assay, HCT^wt (p53 pos); conditions: 48 h
Description: as §1, §2, §3

| SMILES | IC50 (PC3 cells; 48 h) [µM] | IC50 (LNCaP cells) [µM] | IC50 (HCT^−/− cells) [µM] | IC50 (HCT^wt cells) [µM] | IC50 (PC3 cells; Homo sapiens, PC-3, 48 h) [µM] | IC50 (LNCaP cells; Homo sapiens, LNCaP) [µM] |
| --- | --- | --- | --- | --- | --- | --- |
| COc1ccc(N2C(=O)[C@]3(NC2=S)[C@@H](c2cccc(Cl)c2)CN(C)[C@@]32C(=O)Nc3ccccc32)cc1Cl (racemic) [Compound 58] | > 100 | > 100 |  |  |  |  |
| CN1C[C@H](c2ccccc2)[C@]2(NC(=S)N(c3ccccc3)C2=O)[C@]12C(=O)Nc1ccc(Br)cc12 (racemic) [Compound 5] | 4.6 ± 2.5 | 2.2 ± 0.8 | 12.5 ± 3.2 | 10.5 ± 2.3 |  |  |
| C=CCN1C(=O)[C@]2(NC1=S)[C@@H](c1cccc(Cl)c1)CN(C)[C@@]21C(=O)Nc2ccccc21 (racemic) [Compound 68] | > 50 | > 50 |  |  |  |  |
| CN1C[C@H](c2cccc(Cl)c2)[C@]2(NC(=S)N(c3ccccc3)C2=O)[C@]12C(=O)Nc1ccccc12 (racemic) [Compound 14] | > 100 | > 100 |  |  |  |  |
| CN1C[C@H](c2ccncc2)[C@]2(NC(=S)N(c3ccccc3)C2=O)[C@]12C(=O)Nc1ccc(Cl)cc12 (racemic) [Compound 21] | > 100 | > 100 | > 100 | 50.5 ± 10.2 |  |  |
| CCOc1ccc(N2C(=O)[C@]3(NC2=S)[C@@H](c2ccc(Cl)cc2)CN(C)[C@@]32C(=O)Nc3ccccc32)cc1 (racemic) [Compound 28] | > 100 | > 100 | > 100 | > 100 |  |  |
| CN1C[C@H](c2ccccn2)[C@]2(NC(=S)N(c3ccccc3)C2=O)[C@]12C(=O)Nc1ccc(Cl)cc12 (racemic) [Compound 18] | 8.2 ± 3.5 | 2.1 ± 0.3 | > 100 | 60.1 ± 8.6 |  |  |
| CC(c1ccccc1)N1C(=O)C2(NC1=S)C(c1ccc(Cl)cc1)CN(C)C21C(=O)Nc2ccc(Br)cc21 (mixture of isomers) [Compound 65] | > 100 | > 100 | > 100 | > 100 |  |  |
| C#CCOc1ccc(N2C(=O)[C@]3(NC2=S)[C@@H](c2ccc(Cl)cc2)CN(C)[C@@]32C(=O)Nc3ccccc32)cc1 [Compound 35] |  |  | > 100 | > 100 | > 100 | > 100 |
| CC(c1ccccc1)N1C(=O)C2(NC1=S)C(c1ccccc1Cl)CN(C)C21C(=O)Nc2ccc(Br)cc21 (mixture of isomers) [Compound 62] | > 100 | > 100 | > 100 | > 100 |  |  |
| CC(c1ccccc1)N1C(=O)C2(NC1=S)C(c1cccc(Cl)c1)CN(C)C21C(=O)Nc2ccc(Br)cc21 (mixture of isomers) [Compound 63] | 8.8 ± 3.1 | 3.4 ± 1.5 | > 100 | 8 ± 2.5 |  |  |
| CCOc1ccc([C@H]2CN(C)[C@@]3(C(=O)Nc4ccc(Br)cc43)[C@@]23NC(=S)N(c2ccc(F)cc2)C3=O)cc1 (racemic) [Compound 61] | > 100 | > 100 |  |  |  |  |
| CN1C[C@H](c2ccc(Cl)cc2)[C@]2(NC(=S)N(c3ccc(F)cc3)C2=O)[C@]12C(=O)Nc1ccc(Br)cc12 (racemic) [Compound 40] | > 100 | > 100 | > 100 | > 100 |  |  |
| C=CCN1C(=O)[C@]2(NC1=S)[C@@H](c1ccccn1)CN(C)[C@@]21C(=O)Nc2ccccc21 (racemic) [Compound 67] | > 50 | > 50 |  |  |  |  |
| CN1C[C@H](C2CCCCC2)[C@]2(NC(=S)N(c3ccccc3)C2=O)[C@]12C(=O)Nc1ccc(Br)cc12 (racemic) [Compound 26] | > 100 | > 100 |  |  |  |  |
| CC(c1ccccc1)N1C(=O)C2(NC1=S)C(c1ccccc1Cl)CN(C)C21C(=O)Nc2ccc(Cl)cc21 (mixture of isomers) [Compound 64] | > 100 | > 100 | > 100 | 24 ± 6.7 |  |  |
| CN1C[C@H](c2ccccn2)[C@]2(NC(=S)N(c3ccccc3)C2=O)[C@]12C(=O)Nc1ccc(Br)cc12 (racemic) [Compound 17] | > 100 | > 100 | 7.6 ± 3.2 | 5.6 ± 2.3 |  |  |
| CN1CC(c2ccc(Cl)cc2)C2(NC(=S)N(c3ccc(O)cc3)C2=O)C12C(=O)Nc1ccc(Br)cc12 (stereo not drawn) [Compound 51, 1-(4-hydroxyphenyl)-4’-(4-chlorophenyl)-1’-methyl-5’’’-bromo-2-thiooxodispiro[imidazolidine-4,3’-pyrrolidine-2’,3”-indoline]-2”,5-dione] | > 100 | > 100 | > 100 | > 100 |  |  |
| CCc1ccc([C@H]2CN(C)[C@@]3(C(=O)Nc4ccccc43)[C@@]23NC(=S)N(c2ccc(F)c(Cl)c2)C3=O)cc1 (racemic) [Compound 46] | > 100 | > 100 | 6.5 ± 3.6 | 6.3 ± 2.5 |  |  |

| SMILES | IC50 (PC3 cells; 48 h) [µM] | IC50 (LNCaP cells) [µM] | IC50 (HCT^−/− cells) [µM] | IC50 (HCT^wt cells) [µM] | IC50 (PC3 cells; Homo sapiens, PC-3, 48 h) [µM] | IC50 (LNCaP cells; Homo sapiens, LNCaP) [µM] |
| --- | --- | --- | --- | --- | --- | --- |
| CN1C[C@H](c2cccc(Cl)c2)[C@]2(NC(=S)N(c3ccccc3)C2=O)[C@]12C(=O)Nc1ccc(Cl)cc12 (racemic) [Compound 23] | > 100 | > 100 | 50.7 ± 12.6 | 50.7 ± 8.9 |  |  |
| CN1C[C@H](c2ccc(F)cc2)[C@]2(NC(=S)N(c3ccc(Cl)cc3)C2=O)[C@]12C(=O)Nc1ccccc12 (racemic) [Compound 38] | > 100 | > 100 | > 100 | > 100 |  |  |
| COc1ccc(N2C(=O)[C@]3(NC2=S)[C@@H](c2cccc(Cl)c2)CN(C)[C@@]32C(=O)Nc3ccc(Br)cc32)cc1Cl (racemic) [Compound 59] | > 50 | > 50 |  |  |  |  |
| CN1C[C@H](c2ccccc2Cl)[C@]2(NC(=S)N(c3ccc(Cl)cc3)C2=O)[C@]12C(=O)Nc1ccc(Cl)cc12 (racemic) [Compound 36] | > 100 | > 100 | > 100 | > 100 |  |  |
| CN1C[C@H](c2ccccc2Cl)[C@]2(NC(=S)N(c3ccccc3)C2=O)[C@]12C(=O)Nc1ccc(Br)cc12 (racemic) [Compound 10] | > 100 | > 100 |  |  |  |  |
| CN1C[C@H](c2cccc(C=O)c2)[C@]2(NC(=S)N(c3ccccc3)C2=O)[C@]12C(=O)Nc1ccc(Cl)cc12 (racemic) [Compound 24] | > 100 | > 100 | > 100 | > 100 |  |  |
| COc1ccc(N2C(=O)[C@]3(NC2=S)[C@@H](c2cccc(Cl)c2)CN(C)[C@@]32C(=O)Nc3ccc(Br)cc32)cc1 (racemic) [Compound 33] | > 100 | > 100 | > 100 | > 100 |  |  |
| CN1CC(c2ccc(Cl)cc2)C2(NC(=S)N(c3ccc(O)cc3)C2=O)C12C(=O)Nc1ccccc12 (stereo not drawn) [Compound 50, 1-(4-hydroxyphenyl)-4’-(4-chlorophenyl)-1’-methyl-2-thiooxodispiro[imidazolidine-4,3’-pyrrolidine-2’,3”-indoline]-2”,5-dione] | 4.65 ± 2.3 | 18 ± 4.7 | > 100 | 6.9 ± 3.1 |  |  |
| COc1ccc([C@H]2CN(C)[C@@]3(C(=O)Nc4ccccc43)[C@@]23NC(=S)N(c2ccc(F)c(Cl)c2)C3=O)cc1OC (racemic) [Compound 44] | 10.2 ± 2.3 | 8.6 ± 1.8 | > 100 | 35 ± 16.2 |  |  |
| CN1C[C@H](c2cccc(Cl)c2)[C@]2(NC(=S)N(c3ccccc3)C2=O)[C@]12C(=O)Nc1ccc(Br)cc12 (racemic) [Compound 15] | > 100 | > 100 | > 100 | > 100 |  |  |
| CN1C[C@H](c2ccccc2Br)[C@]2(NC(=S)N(c3ccccc3)C2=O)[C@]12C(=O)Nc1ccccc12 (racemic) [Compound 8] | > 100 | > 100 | > 100 | > 100 |  |  |
| CN1C[C@H](c2ccc(Cl)cc2)[C@]2(NC(=S)N(c3ccccc3)C2=O)[C@]12C(=O)Nc1ccc(Cl)cc12 (racemic) [Compound 12] | > 100 | > 100 | > 100 | > 100 |  |  |
| CN1C[C@H](c2ccccc2Cl)[C@]2(NC(=S)N(c3ccccc3)C2=O)[C@]12C(=O)Nc1ccccc12 (racemic) [Compound 9] | > 100 | > 100 | 23.1 ± 6.6 | 21.7 ± 5.8 |  |  |
| COc1ccc([C@H]2CN(C)[C@@]3(C(=O)Nc4ccc(Br)cc43)[C@@]23NC(=S)N(c2ccc(F)c(Cl)c2)C3=O)cc1OC (racemic) [Compound 45] | > 100 | > 100 |  |  |  |  |
| CCOc1ccc(N2C(=O)[C@]3(NC2=S)[C@@H](c2ccc(Cl)c(Cl)c2)CN(C)[C@@]32C(=O)Nc3ccccc32)cc1 (racemic) [Compound 27] | > 100 | > 100 | > 100 | > 100 |  |  |
| CN1C[C@H](c2ccncc2)[C@]2(NC(=S)N(c3ccccc3)C2=O)[C@]12C(=O)Nc1ccccc12 (racemic) [Compound 19] | > 100 | > 100 | > 100 | > 100 |  |  |
| CN1C[C@H](C2CCCCC2)[C@]2(NC(=S)N(c3ccccc3)C2=O)[C@]12C(=O)Nc1ccccc12 (racemic) [Compound 25] | > 100 | > 100 |  |  |  |  |
| CCOc1ccc([C@H]2CN(C)[C@@]3(C(=O)Nc4ccccc43)[C@@]23NC(=S)N(c2ccc(F)cc2)C3=O)cc1 (racemic) [Compound 60] | > 100 | > 100 |  |  |  |  |
